# Source: patent US7696218B2, “Substituted 1,3-dialkyl-2,4-dioxo-6-(arylamino)-1,2,3,4-tetrahydropyrimidine-5-hydroxamic acid inhibitors of MAPK/ERK kinase” (Takeda San Diego, Inc., priority 2006, dated 2010)
# Target: T1, MEK2 (Homo sapiens, UniProt P36507, S222E/S226D)
# T1 construct: 6-histidine tag (N); made in house; host or cells: Spodoptera frugiperda Sf9 (baculovirus) for MEK2; E. coli for ERK1
# Experiment: MEK2 inhibition assay, fluorescence polarization with IMAP beads (ERK1 / FI-Erktide substrate)
# Format: biochemical
# Conditions: 4 nM MEK2, 25 nM ERK1, 400 μM ATP, 500 nM FI-Erktide, 1% DMSO, 22 min at room temperature; values given as ranges; read-out: IC50 of Exemplified Compounds Against MEK2
# Source text: For MEK2, DNA encoding residues 1-400 (S222E/S226D) of the full-length sequence of the human enzyme may be amplified by PCR and cloned into pFastbac (Invitrogen), which incorporates a 6-histidine tag at the N-terminus. The two mutations, S222E and S226D, may be obtained by quick change PCR. SEQ ID NO: 3 corresponds to residues 1-400 with mutations S222E/S226D, and with the N-terminal 6-histidine tag and SEQ ID NO: 4 is the DNA sequence that was used to encode SEQ ID NO: 3.
# Recombinant baculovirus incorporating the MEK1 and MEK2 constructs may be generated by transposition using the Bac-to-Bac system (Invitrogen). High-titer viral stocks may be generated by infection of Spodoptera frugiperda Sf9 cells; the expression of recombinant protein may be carried out by infection of Spodoptera frugiperda Sf9 (Invitrogen) in 5L Wave Bioreactors (Wave Biotech).
# Recombinant protein may be isolated from cellular extracts by passage over ProBond resin (Invitrogen). Partially purified extracts of all MEK1 may then be further purified by high pressure liquid chromatography over a SEC2000 gel filtration resin. The purity of MEK1 and MEK2 proteins may be determined on denaturing SDS-PAGE gel. Purified MEK1 and MEK2 may then be concentrated to a final concentration of 3.4 mg/ml and 5.4 mg/ml, respectively. The proteins may be either stored at −78° C. in a buffer containing 50 mM TRIS-HCl pH 7.6, 250 mM NaCl, 0.1 mM EDTA and 0.125 mM TCEP or at −20° C. in the presence of glycerol (final concentration of glycerol at 50%).
# The inhibitory properties of compounds relative to MEK1 or MEK2 may be determined using a black 384-well-plate format under the following reaction conditions: 50 mM HEPES pH 7.3, 10 mM NaCl, 10 mM MgCl2, 0.01% Brij35, 1 nM MEK1 or 4 nM MEK2, 25 nM ERK1, 400 μM ATP, 500 nM IPTTPITTYFFFK-5FAM-COOH (FI-Erktide), and 1% DMSO. Reaction product is determined quantitatively by fluorescent polarization using progressive IMAP beads from Molecular Devices.
# The assay reaction may be initiated as follows: 2 μl of the mixture of 1.5 μM FI-Erktide and 75 nM ERK with 2 μl of inhibitor (2 fold serial dilutions for 11 data points for each inhibitor) containing 3% DMSO were added to each well of the plate, followed by the addition of 2 μl of the mixture of 3 nM MEK1 or 12 nM MEK2 and 1200 μM ATP to initiate the reaction (final enzyme concentration was 1 nM for MEK1 or 4 nM for MEK2). The reaction mixture may then be incubated at room temperature for 22 min, and quenched and developed by addition of 20 μl of 1:200 dilution of progressive IMAP beads (Molecular Devices) in 80% buffer A, 20% bufferB and 0.003% Tween 20. Fluorescence polarization of the resulting reaction mixtures may be measured after a 1 hour incubation at room temperature.
# IC50 values may be calculated by non-linear curve fitting of the compound concentrations and fluorescence polarization signal to the standard IC50 equation.
# T1 sequence (P36507 with tags, fused parts or gaps S222E/S226D): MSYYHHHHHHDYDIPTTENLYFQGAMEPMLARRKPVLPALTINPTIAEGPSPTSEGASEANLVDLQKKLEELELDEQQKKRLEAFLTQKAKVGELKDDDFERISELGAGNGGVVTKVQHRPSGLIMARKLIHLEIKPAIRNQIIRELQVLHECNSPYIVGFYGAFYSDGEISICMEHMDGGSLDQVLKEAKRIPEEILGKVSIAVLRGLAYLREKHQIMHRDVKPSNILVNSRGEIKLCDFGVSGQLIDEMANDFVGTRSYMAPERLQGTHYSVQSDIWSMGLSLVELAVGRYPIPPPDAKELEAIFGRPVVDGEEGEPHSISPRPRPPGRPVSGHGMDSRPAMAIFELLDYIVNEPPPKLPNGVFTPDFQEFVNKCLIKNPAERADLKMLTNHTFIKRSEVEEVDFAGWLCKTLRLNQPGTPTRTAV
row,SMILES,IC50 [µM]
1,"Cn1c(Nc2ccc(I)cc2F)c(C(=O)NOC[C@H](O)CO)c(=O)n(C)c1=O [Example 2, (R)-N-(2,3-dihydroxypropoxy)-6-(2-fluoro-4-iodophenylamino)-1,3-dimethyl-2,4-dioxo-1,2,3,4-tetrahydropyrimidine-5-carboxamide]",≤ 0.5
2,"Cn1c(Nc2ccc(I)cc2F)c(C(=O)NOCCO)c(=O)n(C)c1=O [Example 3, 6-(2-fluoro-4-iodophenylamino)-N-(2-hydroxyethoxy)-1,3-dimethyl-2,4-dioxo-1,2,3,4-tetrahydropyrimidine-5-carboxamide]",≤ 0.5
3,"Cn1c(Nc2ccc(I)cc2F)c(C(=O)NOCC2CC2)c(=O)n(C)c1=O [Example 4, N-(cyclopropylmethoxy)-6-(2-fluoro-4-iodophenylamino)-1,3-dimethyl-2,4-dioxo-1,2,3,4-tetrahydropyrimidine-5-carboxamide]",0.501 to 2.5
4,"CONC(=O)c1c(Nc2ccc(I)cc2F)n(C)c(=O)n(C)c1=O [Example 5, 6-(2-Fluoro-4-iodophenylamino)-N-methoxy-1,3-dimethyl-2,4-dioxo-1,2,3,4-tetrahydropyrimidine-5-carboxamide]",0.501 to 2.5
5,"Cn1c(Nc2ccc(I)cc2F)c(C(=O)NO)c(=O)n(C)c1=O [Example 6, 6-(2-Fluoro-4-iodophenylamino)-N-hydroxy-1,3-dimethyl-2,4-dioxo-1,2,3,4-tetrahydropyrimidine-5-carboxamide]",≤ 0.5
6,"Cn1c(Nc2ccc(I)cc2F)c(C(=O)NN)c(=O)n(C)c1=O [Example 9, 6-(2-Fluoro-4-iodophenylamino)-1,3-dimethyl-2,4-dioxo-1,2,3,4-tetrahydropyrimidine-5-carbohydrazide]",≤ 0.5
7,"CC(=O)c1c(Nc2ccc(I)cc2F)n(C)c(=O)n(C)c1=O [Example 10, 5-Acetyl-6-(2-fluoro-4-iodophenylamino)-1,3-dimethylpyrimidine-2,4(1H,3H)-dione]",0.501 to 2.5
8,"Cn1c(Nc2ccc(I)cc2F)c(C(=O)c2ccco2)c(=O)n(C)c1=O [Example 11, 6-(2-Fluoro-4-iodophenylamino)-5-(furan-2-carbonyl)-1,3-dimethylpyrimidine-2,4(1H,3H)-dione]",2.5 to 25
9,"COCC(=O)c1c(Nc2ccc(I)cc2F)n(C)c(=O)n(C)c1=O [Example 12, 6-(2-Fluoro-4-iodophenylamino)-5-(2-methoxyacetyl)-1,3-dimethylpyrimidine-2,4(1H,3H)-dione]",2.5 to 25
10,"COCCOCC(=O)c1c(Nc2ccc(I)cc2F)n(C)c(=O)n(C)c1=O [Example 13, 6-(2-Fluoro-4-iodophenylamino)-5-(2-(2-methoxyethoxy)acetyl)-1,3-dimethylpyrimidine-2,4(1H,3H)-dione]",2.5 to 25
11,"CC(=O)OCC(=O)c1c(Nc2ccc(I)cc2F)n(C)c(=O)n(C)c1=O [Example 14, 2-(6-(2-Fluoro-4-iodophenylamino)-1,3-dimethyl-2,4-dioxo-1,2,3,4-tetrahydropyrimidin-5-yl)-2-oxoethyl acetate]",> 25
12,"Cn1c(Nc2ccc(I)cc2F)c(C(=O)CO)c(=O)n(C)c1=O [Example 15, 6-(2-Fluoro-4-iodophenylamino)-5-(2-hydroxyacetyl)-1,3-dimethylpyrimidine-2,4(1H,3H)-dione]",0.501 to 2.5
13,"Cn1c(Nc2ccc(I)cc2F)c(C(N)=O)c(=O)n(C)c1=O [Example 16, 6-(2-Fluoro-4-iodophenylamino)-1,3-dimethyl-2,4-dioxo-1,2,3,4-tetrahydropyrimidine-5-carboxamide]",≤ 0.5
14,"Cc1cc(I)ccc1Nc1c(C(N)=O)c(=O)n(C)c(=O)n1C [Example 17, 6-(4-Iodo-2-methylphenylamino)-1,3-dimethyl-2,4-dioxo-1,2,3,4-tetrahydropyrimidine-5-carboxamide]",0.501 to 2.5
15,"Cn1c(Nc2ccc(Br)cc2Cl)c(C(N)=O)c(=O)n(C)c1=O [Example 18, 6-(4-Bromo-2-chlorophenylamino)-1,3-dimethyl-2,4-dioxo-1,2,3,4-tetrahydropyrimidine-5-carboxamide]",2.5 to 25
16,"Cn1c(Nc2ccc(Br)cc2F)c(C(N)=O)c(=O)n(C)c1=O [Example 19, 6-(4-Bromo-2-fluorophenylamino)-1,3-dimethyl-2,4-dioxo-1,2,3,4-tetrahydropyrimidine-5-carboxamide]",2.5 to 25
17,"CCOC(=O)c1c(Nc2ccc(I)cc2F)n(C)c(=O)n(C)c1=O [Example 20, Ethyl 6-(2-fluoro-4-iodophenylamino)-1,3-dimethyl-2,4-dioxo-1,2,3,4-tetrahydropyrimidine-5-carboxylate]",> 25
18,"CCOC(=O)c1c(Nc2ccccc2F)n(C)c(=O)n(C)c1=O [Example 21, Ethyl 6-(2-fluorophenylamino)-1,3-dimethyl-2,4-dioxo-1,2,3,4-tetrahydropyrimidine-5-carboxylate]",> 25

# Results, then the compound that gave them:
row,IC50 [µM],SMILES
1,> 25,"CCOC(=O)c1c(Nc2ccc(Br)cc2Cl)n(C)c(=O)n(C)c1=O [Example 22, Ethyl 6-(4-bromo-2-chlorophenylamino)-1,3-dimethyl-2,4-dioxo-1,2,3,4-tetrahydropyrimidine-5-carboxylate]"
2,≤ 0.5,"Cn1c(Nc2ccc(I)cc2Cl)c(C(=O)NOCCO)c(=O)n(C)c1=O [Example 25, 6-(2-chloro-4-iodophenylamino)-N-(2-hydroxyethoxy)-1,3-dimethyl-2,4-dioxo-1,2,3,4-tetrahydropyrimidine-5-carboxamide]"
3,≤ 0.5,"Cn1c(Nc2ccc(I)cc2Cl)c(C(=O)NOC[C@H](O)CO)c(=O)n(C)c1=O [Example 27, (R)-6-(2-chloro-4-iodophenylamino)-N-(2,3-dihydroxypropoxy)-1,3-dimethyl-2,4-dioxo-1,2,3,4-tetrahydropyrimidine-5-carboxamide]"
4,≤ 0.5,"Cn1c(Nc2ccc(I)cc2F)c(C(=O)NOC(CO)CO)c(=O)n(C)c1=O [Example 28, N-(1,3-dihydroxypropan-2-yloxy)-6-(2-fluoro-4-iodophenylamino)-1,3-dimethyl-2,4-dioxo-1,2,3,4-tetrahydropyrimidine-5-carboxamide]"
5,0.501 to 2.5,"Cn1c(Nc2ccc(I)cc2F)c(C(=O)NOCCCO)c(=O)n(C)c1=O [Example 29, 6-(2-Fluoro-4-iodophenylamino)-N-(3-hydroxypropoxy)-1,3-dimethyl-2,4-dioxo-1,2,3,4-tetrahydropyrimidine-5-carboxamide]"
6,> 25,"Cc1cc(C(=O)c2c(Nc3ccc(I)cc3F)n(C)c(=O)n(C)c2=O)no1 [Example 30, 6-(2-Fluoro-4-iodophenylamino)-1,3-dimethyl-5-(5-methylisoxazole-3-carbonyl)pyrimidine-2,4(1H,3H)-dione]"
7,> 25,"Cn1c(Nc2ccc(I)cc2F)c(C(=O)C(=O)O)c(=O)n(C)c1=O [Example 31, 2-(6-(2-Fluoro-4-iodophenylamino)-1,3-dimethyl-2,4-dioxo-1,2,3,4-tetrahydropyrimidin-5-yl)-2-oxoacetic acid]"
8,2.5 to 25,"Cn1c(Nc2ccc(I)cc2F)c(C(=O)N2CC(O)CO2)c(=O)n(C)c1=O (stereo not drawn) [Example 32, 6-(2-Fluoro-4-iodophenylamino)-5-(4-hydroxyisoxazolidine-2-carbonyl)-1,3-dimethylpyrimidine-2,4(1H,3H)-dione]"
9,2.5 to 25,"Cn1c(Nc2ccc(I)cc2F)c(C(=O)NCCN2CCCC2)c(=O)n(C)c1=O [Example 33, 6-(2-Fluoro-4-iodophenylamino)-1,3-dimethyl-2,4-dioxo-N-(2-(pyrrolidin-1-yl)ethyl)-1,2,3,4-tetrahydropyrimidine-5-carboxamide]"
